Assays:
Type in all cases: cell-based
[1] = tested on: Wnt activity (Sp5-Luc reporter, TCF/LEF binding sites) in SW480 colon carcinoma cells; assay: Wnt activity screening assay, Sp5-Luc reporter gene in SW480 cells; details: Homo sapiens, overnight incubation
Text: The screening assay for Wnt activity is described as follows. Reporter cell lines can be generated by stably transducing cancer cell lines (e.g., colon cancer) or primary cells (e.g., IEC-6 intestinal cells) with a lentiviral construct that includes a Wnt-responsive promoter driving expression of the firefly luciferase gene.
SW480 colon carcinoma cells were transduced with a lentiviral vector expressing luciferase with a human Sp5 promoter consisting of a sequence of eight TCF/LEF binding sites. SW480 cells stably expressing the Sp5-Luc reporter gene and a hygromycin resistance gene were selected by treatment with 150 μg/mL of hygromycin for 7 days. These stably transduced SW480 cells were expanded in cell culture and used for all further screening activities. Each compound was dissolved in DMSO as a 10 mM stock and used to prepare compound source plates. Serial dilution (1:3, 10-point dose-response curves starting from 10 μM) and compound transfer was performed using the ECHO 550 (Labcyte, Sunnyvale, Calif.) into 384-well white solid bottom assay plates (Greiner Bio-One) with appropriate DMSO backfill for a final DMSO concentration of 0.1%. For Sp5-Luc reporter gene assays, the cells were plated at 4,000 cells/well in 384-well plates with medium containing 1% fetal bovine serum and incubated overnight at 37° C. and 5% CO2. Following incubation, 20 μl of BrightGlo luminescence reagent (Promega) was added to each well of the 384-well assay plates. The plates were placed on an orbital shaker for 2 min and then luminescence was quantified using the Envision (Perkin Elmer) plate reader. Readings were normalized to DMSO only treated cells, and normalized activities were utilized for EC50 calculations using the dose-response log (inhibitor) vs. response-variable slope (four parameters) nonlinear regression feature available in GraphPad Prism 5.0 (or Dotmatics). For EC50 of >10 μM, the percent inhibition at 10 μM is provided.

SW480 colon cancer cells = assay: Cell viability assay (CellTiter-Blue), SW480 cells; details: Homo sapiens, 96 h, four days, CellTiter-Blue
Description: Representative compounds were screened using the following assay procedure to assess the effect on cell viability as described below.
Each compound was dissolved in DMSO as a 10 mM stock and used to prepare compound source plates. Serial dilution (1:3, 8-point dose-response curves from […]) and compound transfer was performed using the ECHO 550 (Labcyte, Sunnyvale, Calif.) into 96-well clear bottom, black-walled plates (Corning-Costar).
Approximately 2×10^3 SW480 colon cancer cells were seeded into each well and allowed to incubate in the presence or absence of compound for four days at 37° C./5% CO2. Eight replicates of DMSO-treated cells served as controls and cells treated with compound were performed in duplicate.
After incubation, 20 μL of CellTiter-Blue (Promega) was added to each well allowed to incubate for approximately 3 hours. This reagent was a buffered solution which contains resazurin, metabolically active cells were able to reduce rezarurin (blue) into resorufin (pink) which was highly fluorescent. This measured fluorescence was used as a readout for cell viability.
After incubation, the plates were read at Ex 560 nm Em 590 nm (Cytation 3, BioTek). Dose-response curves were generated and EC50 concentration values were calculated using non-linear regression curve fit in the GraphPad Prism (San Diego, Calif.) or Dotmatics' Studies Software (Bishops Stortford, UK). For EC50 of >10 μM, the percent inhibition at 10 μM is provided.

[2] = tested on: primary human fibroblasts derived from IPF patients (LL29 cells) treated with TGF-β1; assay: Inhibition of fibrotic process, αSMA staining in TGF-β1 treated LL29 fibroblasts; details: Fibroblast; for EC50: 96 h, TGF-β1 20 ng/mL, 4 days, % cells positive for αSMA
Text: Representative compounds were screened using primary human fibroblasts (derived from IPF patients) treated with TGF-β1 to determine their ability to inhibit the fibrotic process.
Primary human fibroblasts derived from IPF patients (LL29 cells) [^1Xiaoqiu Liu, et. al., “Fibrotic Lung Fibroblasts Show Blunted Inhibition by cAMP Due to Deficient cAMP Response Element-Binding Protein Phosphorylation”, Journal of Pharmacology and Experimental Therapeutics (2005), 315(2), 678-687; ^2Watts, K. L., et. al., “RhoA signaling modulates cyclin D1 expression in human lung fibroblasts; implications for idiopathic pulmonary fibrosis”, Respiratory Research (2006), 7(1), 88] were obtained from American Type Culture Collection (ATCC) and expanded in F12 medium supplemented with 15% Fetal Bovine Serum and Penicillin/Streptomycin.
Each compound was dissolved in DMSO as a 10 mM stock and used to prepare compound source plates. Serial dilution (1:2, 11-point dose-response curves from […] to […]) and compound transfer was performed using the ECHO 550 (Labcyte, Sunnyvale, Calif.) into 384-well clear bottom assay plates (Greiner Bio-One) with appropriate DMSO backfill for a final DMSO concentration of 0.1%. LL29 cells are plated at 1,500 cells/well in 80 μL/well F12 medium supplemented with 1% Fetal Bovine Serum. One hour after addition of the cells, TGF-β1 (Peprotech; 20 ng/mL) was added to the plates to induce fibrosis (ref. 1 and 2 above). Wells treated with TGF-β1 and containing DMSO were used as controls. Cells were incubated at 37° C. and 5% CO2 for 4 days. Following incubation for 4 days, SYTOX green nucleic acid stain (Life Technologies [Thermo Fisher Scientific]) was added to the wells at a final concentration of 1 μM and incubated at room temperature for 30 min. Cells were then fixed using 4% formaldehyde (Electron Microscopy Sciences), washed 3 times with PBS followed by blocking and permeabilization using 3% Bovine Serum Albumin (BSA; Sigma) and 0.3% Triton X-100 (Sigma) in PBS. Cells were then stained with antibody specific to α-smooth muscle actin (aSMA; Abcam) (ref. 1 and 2 above) in 3% Bovine Serum Albumin (BSA; Sigma) and 0.3% Triton X-100 (Sigma) in PBS, and incubated overnight at 4° C. Cells were then washed 3 times with PBS, followed by incubation with Alexa Flor-647 conjugated secondary antibody (Life Technologies [Thermo Fisher Scientific]) and DAPI at room temperature for 1 hour. Cells were then washed 3 times with PBS and plates were sealed for imaging. aSMA staining was imaged by excitation at 630 nm and emission at 665 nm and quantified using the Compartmental Analysis program on the CellInsight CX5 (Thermo Scientific). Dead or apoptotic cells were excluded from analysis based on positive SYTOX green staining. % of total cells positive for aSMA were counted in each well and normalized to the average of 11 wells treated with TGF-β1 on the same plate using Dotmatics' Studies Software. The normalized averages (fold change over untreated) of 3 replicate wells for each compound concentration were used to create dose-responses curves and EC50 values were calculated using non-linear regression curve fit in the Dotmatics' Studies Software. For EC50 of >10 μM, the percent inhibition at 10 μM is provided.

IL-6 = IL-6 inhibition in LPS-stimulated THP-1 cells (HTRF); details: Homo sapiens; for EC50: LPS 500 ng/mL, 22 hours, IL6 HTRF; for inhibition at 10 µM: given for EC50 >10 μM, LPS, IL6, at 10 M [sic], read-out: percent inhibition at 10 M
Description: Human monocyte cell line (THP-1 cells; Catalog # TIB-202, ATCC, Manassas, Va.) were cultured in Roswell Park Memorial Institute (RPMI) 1640 Medium (Catalog #21870-100, Buffalo, N.Y.) with 1% L-glutamine, 1% HEPES, 1% Sodium Pyruvate, 2% Sodium Bicarbonate supplemented with 100 units/mL penicillin, 50 μg/mL streptomycin, 2-mercaptoethanol (0.05 mM) [basal medium] and 10% fetal bovine serum (Catalog #16140089, Life Technologies, Carlsbad, Calif.) at 37° C. and 5% CO2.
THP-1 cells were cultured in basal media with 1% FBS for 24 hours before the start of the assay. Each compound was dissolved in DMSO as a 10 mM stock and used to prepare compound source plates. Serial dilution (1:3, 10-point dose-response curves starting from 10 μM) and compound transfer was performed using the ECHO 550 (Labcyte, Sunnyvale, Calif.) into 384-well white low volume assay plates (Greiner Bio-One) with appropriate DMSO backfill for a final DMSO concentration of 0.1%. THP-1 cells were plated at 5000 cells/well in the 384-well plates and incubated at 37° C. for 2 h. 500 ng/mL of LPS was added after 2 hours and cells were incubated for another 22 hours at 37° C. Plates were spun in a centrifuge for 1 minute at […] and a mixture of anti-IL6 XL665, and anti-IL6 Cryptate diluted in reconstitution buffer (Cisbio Inc.) was added to each well. Following incubation for 3 hrs at room temperature, Homogeneous Time-Resolved Fluorescence (HTRF) was measured using the Envision (Perkin Elmer) at 665 nm and […]. The ratio of fluorescence at 665 nm to 620 nm was used as a readout for IL6 quantification. All samples were processed in duplicate. Readings were normalized to DMSO treated cells and normalized activities were utilized for EC50 calculations using the dose-response log (inhibitor) vs. response-variable slope (four parameters) nonlinear regression feature available in GraphPad Prism 5.0 (or Dotmatics). For EC50 of >10 μM, the percent inhibition at […] is provided.

O=C(Nc1cncc(-c2ccc3[nH]nc(-c4cc5c(-c6cccc(F)c6)cncc5[nH]4)c3n2)c1)C1CCCCC1 [Compound 23, N-(5-(3-(4-(3-Fluorophenyl)-1H-pyrrolo[2,3-c]pyridin-2-yl)-1H-pyrazolo [4,3-b]pyridin-5-yl)pyridin-3-yl)cyclohexanecarboxamide]
EC50 [1]: 1.46 µM
EC50 (SW480 colon cancer cells): 1.07 µM
EC50 [2]: 0.718 µM
EC50 (IL-6): > 10 µM
inhibition at 10 µM (IL-6): 1%

CC(C)(C)C(=O)Nc1cncc(-c2ccc3[nH]nc(-c4cc5c(-c6cccc(F)c6)cncc5[nH]4)c3n2)c1 [Compound 8, N-(5-(3-(4-(3-Fluorophenyl)-1H-pyrrolo[2,3-c]pyridin-2-yl)-1H-pyrazolo [4,3-b]pyridin-5-yl)pyridin-3-yl)pivalamide]
EC50 [1]: 1.97 µM
EC50 (SW480 colon cancer cells): 1.21 µM
EC50 [2]: 2.31 µM
EC50 (IL-6): 0.228 µM

Fc1cccc(-c2cncc3[nH]c(-c4n[nH]c5ccc(-c6cncc(OCc7ccccc7)c6)nc45)cc23)c1 [Compound 518, 5-(5-(Benzyloxy)pyridin-3-yl)-3-(4-(3-fluorophenyl)-1H-pyrrolo[2,3-c]pyridin-2-yl)-1H-pyrazolo[4,3-b]pyridine]
EC50 [1]: 1.28 µM
EC50 (SW480 colon cancer cells): 1.12 µM
EC50 [2]: 1.2 µM
EC50 (IL-6): > 10 µM
inhibition at 10 µM (IL-6): 35.5%

O=C(Nc1cncc(-c2ccc3[nH]nc(-c4cc5c(-c6ccccc6F)cncc5[nH]4)c3n2)c1)C1CC1 [Compound 76, N-(5-(3-(4-(2-Fluorophenyl)-1H-pyrrolo[2,3-c]pyridin-2-yl)-1H-pyrazolo [4,3-b]pyridin-5-yl)pyridin-3-yl)cyclopropanecarboxamide]
EC50 [1]: 1.42 µM
EC50 (SW480 colon cancer cells): 0.897 µM
EC50 [2]: 2.04 µM
EC50 (IL-6): 0.157 µM

c1ncc(-c2ccc3[nH]nc(-c4cc5c(N6CCCCC6)cncc5[nH]4)c3n2)cc1OC1CCCCC1 [Compound 607, 5-(5-(Cyclohexyloxy)pyridin-3-yl)-3-(4-(piperidin-1-yl)-1H-pyrrolo[2,3-c]pyridin-2-yl)-1H-pyrazolo[4,3-b]pyridine]
EC50 [1]: 3.35 µM
EC50 (SW480 colon cancer cells): 0.498 µM
EC50 [2]: 0.199 µM
EC50 (IL-6): 2.36 µM

c1csc(-c2cncc3[nH]c(-c4n[nH]c5ccc(-c6ccncc6)nc45)cc23)c1 [Compound 354, 5-(Pyridin-4-yl)-3-(4-(thiophen-2-yl)-1H-pyrrolo[2,3-c]pyridin-2-yl)-1H-pyrazolo[4,3-b]pyridine]
EC50 [1]: 2.23 µM
EC50 (SW480 colon cancer cells): 1.08 µM
EC50 [2]: 1.18 µM
EC50 (IL-6): 5.8 µM

CC(C)Nc1cncc(-c2ccc3[nH]nc(-c4cc5c(-c6cccnc6)cncc5[nH]4)c3n2)c1 [Compound 96, N-Isopropyl-5-(3-(4-(pyridin-3-yl)-1H-pyrrolo[2,3-c]pyridin-2-yl)-1H-pyrazolo[4,3-b]pyridin-5-yl)pyridin-3-amine]
EC50 [1]: 1.73 µM
EC50 (SW480 colon cancer cells): 1.38 µM
EC50 [2]: > 10 µM
inhibition at 10 µM ([2]; given for EC50 >10 μM, TGF-β1, αSMA, 10 μM, read-out: percent inhibition at 10 μM): 0%
EC50 (IL-6): 0.12 µM

CN(C)CCOc1cncc(-c2ccc3[nH]nc(-c4cc5ccncc5[nH]4)c3n2)c1 [Compound 659, 2-((5-(3-(1H-Pyrrolo[2,3-c]pyridin-2-yl)-1H-pyrazolo[4,3-b]pyridin-5-yl)pyridin-3-yl)oxy)-N,N-dimethylethan-1-amine]
EC50 [1]: 3.35 µM
EC50 (SW480 colon cancer cells): 1.48 µM
EC50 [2]: 4.13 µM
EC50 (IL-6): 1.49 µM

CCNCc1cncc(-c2ccc3[nH]nc(-c4cc5ccncc5[nH]4)c3n2)c1 [Compound 258, N-((5-(3-(1H-Pyrrolo[2,3-c]pyridin-2-yl)-1H-pyrazolo[4,3-b]pyridin-5-yl)pyridin-3-yl)methyl)ethanamine]
EC50 [1]: 8.45 µM
EC50 (SW480 colon cancer cells): 3.58 µM
EC50 [2]: 6.63 µM
EC50 (IL-6): 0.873 µM

Cc1ccncc1-c1ccc2[nH]nc(-c3cc4c(-c5cccs5)cncc4[nH]3)c2n1 [Compound 341, 5-(4-Methylpyridin-3-yl)-3-(4-(thiophen-2-yl)-1H-pyrrolo[2,3-c]pyridin-2-yl)-1H-pyrazolo[4,3-b]pyridine]
EC50 [1]: 4.07 µM
EC50 (SW480 colon cancer cells): 4.25 µM
EC50 [2]: 0.521 µM
EC50 (IL-6): 0.118 µM
